Test system: adult patients with uncontrolled gout
Test: Serum uric acid (sUA) levels and sUA responder rate, open-label study of pegloticase with MTX (MIRROR OL)
Type: in vivo, human
Settings: Month 6 sUA Responders
Experimental: The primary objective is to estimate the response rate during Month 6 (Weeks 20, 22, and 24), as measured by the sustained normalization of serum uric acid (SUA) to <6 mg/dL for at least 80% of the time during Month 6 in subjects receiving KXX with MTX.
The primary efficacy outcome endpoint is the sustained normalization of SUA to <6 mg/dL for at least 80% of the time during month 6 (weeks 20, 22, and 24) in subjects receiving KXX with MTX. […] Participants who achieve this endpoint were classified as “responders.” Serum uric acid (SUA) responders may also be defined as participants achieving and maintaining SUA <6 mg/dL for at least 80% of the time during Month 6 (Weeks 20, 22, and 24).
Blood samples may be collected prior to each pegloticase infusion for measurement of SUA levels using the Beckman Coulter AU System Uric Acid procedure. Participants were declared “non-responders” if there were SUA measures >6 mg/dL at 2 consecutive study visits beginning with the week 2 visit. […] This assumption and subsequent discontinuation of pegloticase was consistent with the protocol of large phase III randomized controlled trials and the product label. A formal stopping rule was 2 occasions of SUA levels of greater than 6 mg/dL.
Clinical Chemistry—Blood samples were collected prior to each pegloticase infusion for measurement of SUA levels (primary efficacy parameter) using the Beckman Coulter AU System Uric Acid procedure. In this procedure uric acid is converted to hydrogen peroxide. Hydrogen peroxide reacts with reagent to produce a chromophore which is read bichromatically at 660/800 nm. The amount of dye formed is proportional to the uric acid concentration in the sample.
Serum samples for measurement of SUA levels were collected at the Screening Visit, the Week −4 Visit (prior to the first dose of MTX), and the Week −2 Visit during the MTX Run-in Period; within 48 hours prior to each pegloticase infusion and after the end of each pegloticase infusion prior to discharge from the site during the Pegloticase+IMM Period; at the non-infusion Week 52/End of Study/Early Termination Visits and at the Post Treatment 3 and 6 Month Follow-up Visits. Additional serum samples for SUA levels were collected at optional non-infusion (Frequent Sampling) Visits at Weeks 1 and 7. […] Subjects with SUA level >6 mg/dL at 2 consecutive visits beginning at Week 2 visit discontinued treatment, completed the End of Pegloticase Infusion Visit procedures within 2 weeks and continued the subject visits according to the protocol (without treatment).
Efficacy analyses were performed using the modified intention-to-treat (mITT) population, defined as all enrolled subjects who received ≥1 dose of pegloticase. The proportion of Month 6 responders was summarized, along with a 95% confidence interval for the proportion. The proportion of Month 3 and overall (Months 3 and 6 combined) responders was analyzed similarly.
A subject was declared a non-responder if the subject had SUA level >6 mg/dL at 2 consecutive study visits beginning with the Week 2 Visit. In addition, a subject who withdraws from study treatment for any reason after the first dose of pegloticase in the KXX+MTX Period and prior to Month 6 (for the primary endpoint) or Month 3 (for the secondary endpoint) was considered a non-responder if SUA values were not collected at the planned time points.
Patients were administered oral MTX (15 mg/week) and folate (1 mg/day) 4 weeks prior to the first pegloticase infusion (Day 1) and throughout the pegloticase treatment period. Blood was drawn prior to each infusion to measure sUA level, monitor clinical parameters, and examine for ADA development. All patients followed typical IR prophylaxis protocols (fexofenadine one day before and the morning of each infusion and acetaminophen and IV corticosteroid the morning of each infusion).

pegloticase
Serum Uric Acid, Observed, Median (Week 14-Post-Infusion, n=10): 0.30 mg/dL
sUA <6 mg/dL, n (%) (Week 14-Post-Infusion, n=10): 10 (100%)
Serum Uric Acid, Change from Baseline, Mean (SD) (Week 14-Pre-Infusion, n=11): −8.97 (2.810) mg/dL
Serum Uric Acid, Change from Baseline, Median (Week 14-Pre-Infusion, n=11): -8.80 mg/dL
Serum Uric Acid, Observed, Mean (SD) (Week 14-Pre-Infusion, n=11): 0.30 (0.000) mg/dL
Serum Uric Acid, Observed, Median (Week 14-Pre-Infusion, n=11): 0.30 mg/dL
sUA <6 mg/dL, n (%) (Week 14-Pre-Infusion, n=11): 11 (100%)
Serum Uric Acid, Change from Baseline, Mean (SD) (Week 16-Post-Infusion, n=11): −8.97 (2.810) mg/dL
Serum Uric Acid, Change from Baseline, Median (Week 16-Post-Infusion, n=11): -8.80 mg/dL
Serum Uric Acid, Observed, Mean (SD) (Week 16-Post-Infusion, n=11): 0.30 (0.000) mg/dL
Serum Uric Acid, Observed, Median (Week 16-Post-Infusion, n=11): 0.30 mg/dL
sUA <6 mg/dL, n (%) (Week 16-Post-Infusion, n=11): 11 (100%)
Serum Uric Acid, Change from Baseline, Mean (SD) (Week 16-Pre-Infusion, n=11): −8.97 (2.810) mg/dL
Serum Uric Acid, Change from Baseline, Median (Week 16-Pre-Infusion, n=11): -8.80 mg/dL
Serum Uric Acid, Observed, Mean (SD) (Week 16-Pre-Infusion, n=11): 0.30 (0.000) mg/dL
Serum Uric Acid, Observed, Median (Week 16-Pre-Infusion, n=11): 0.30 mg/dL
sUA <6 mg/dL, n (%) (Week 16-Pre-Infusion, n=11): 11 (100%)
Serum Uric Acid, Change from Baseline, Mean (SD) (Week 18-Post-Infusion, n=11): −8.97 (2.810) mg/dL
Serum Uric Acid, Change from Baseline, Median (Week 18-Post-Infusion, n=11): -8.80 mg/dL
Serum Uric Acid, Observed, Mean (SD) (Week 18-Post-Infusion, n=11): 0.30 (0.000) mg/dL
Serum Uric Acid, Observed, Median (Week 18-Post-Infusion, n=11): 0.30 mg/dL
sUA <6 mg/dL, n (%) (Week 18-Post-Infusion, n=11): 11 (100%)
Serum Uric Acid, Change from Baseline, Mean (SD) (Week 18-Pre-Infusion, n=11): −8.97 (2.810) mg/dL
Serum Uric Acid, Change from Baseline, Median (Week 18-Pre-Infusion, n=11): -8.80 mg/dL
Serum Uric Acid, Observed, Mean (SD) (Week 18-Pre-Infusion, n=11): 0.30 (0.000) mg/dL
Serum Uric Acid, Observed, Median (Week 18-Pre-Infusion, n=11): 0.30 mg/dL
sUA <6 mg/dL, n (%) (Week 18-Pre-Infusion, n=11): 11 (100%)
Serum Uric Acid, Change from Baseline, Mean (SD) (Week 20-Post-Infusion, n=11): −8.97 (2.810) mg/dL
Serum Uric Acid, Change from Baseline, Median (Week 20-Post-Infusion, n=11): -8.80 mg/dL
Serum Uric Acid, Observed, Mean (SD) (Week 20-Post-Infusion, n=11): 0.30 (0.000) mg/dL
Serum Uric Acid, Observed, Median (Week 20-Post-Infusion, n=11): 0.30 mg/dL
sUA <6 mg/dL, n (%) (Week 20-Post-Infusion, n=11): 11 (100%)
Serum Uric Acid, Change from Baseline, Mean (SD) (Week 20-Pre-Infusion, n=11): −8.97 (2.810) mg/dL
Serum Uric Acid, Change from Baseline, Median (Week 20-Pre-Infusion, n=11): -8.80 mg/dL
Serum Uric Acid, Observed, Mean (SD) (Week 20-Pre-Infusion, n=11): 0.30 (0.000) mg/dL
Serum Uric Acid, Observed, Median (Week 20-Pre-Infusion, n=11): 0.30 mg/dL
sUA <6 mg/dL, n (%) (Week 20-Pre-Infusion, n=11): 11 (100%)
Serum Uric Acid, Change from Baseline, Median (Week 22-Post-Infusion, n=11): -8.80 mg/dL
Serum Uric Acid, Observed, Median (Week 22-Post-Infusion, n=11): 0.30 mg/dL
sUA <6 mg/dL, n (%) (Week 22-Post-Infusion, n=11): 11 (100%)
Serum Uric Acid, Change from Baseline, Mean (SD) (Week 22-Pre-Infusion, n=11): −8.97 (2.810) mg/dL
Serum Uric Acid, Change from Baseline, Median (Week 22-Pre-Infusion, n=11): -8.80 mg/dL
Serum Uric Acid, Observed, Mean (SD) (Week 22-Pre-Infusion, n=11): 0.30 (0.000) mg/dL
Serum Uric Acid, Observed, Median (Week 22-Pre-Infusion, n=11): 0.30 mg/dL
sUA <6 mg/dL, n (%) (Week 22-Pre-Infusion, n=11): 11(100%)
Serum Uric Acid, Change from Baseline, Mean (SD) (Week 24-Post-Infusion, n=5): −9.18 (4.135) mg/dL
Serum Uric Acid, Change from Baseline, Median (Week 24-Post-Infusion, n=5): -9.30 mg/dL
Serum Uric Acid, Observed, Mean (SD) (Week 24-Post-Infusion, n=5): 0.30 (0.000) mg/dL
Serum Uric Acid, Observed, Median (Week 24-Post-Infusion, n=5): 0.30 mg/dL
sUA <6 mg/dL, n (%) (Week 24-Post-Infusion, n=5): 5 (100%)
Serum Uric Acid, Change from Baseline, Mean (SD) (Week 24-Pre-Infusion, n=11): −8.97 (2.810) mg/dL
Serum Uric Acid, Change from Baseline, Median (Week 24-Pre-Infusion, n=11): -8.80 mg/dL
Serum Uric Acid, Observed, Mean (SD) (Week 24-Pre-Infusion, n=11): 0.30 (0.000) mg/dL
Serum Uric Acid, Observed, Median (Week 24-Pre-Infusion, n=11): 0.30 mg/dL
sUA <6 mg/dL, n (%) (Week 24-Pre-Infusion, n=11): 11 (100%)
Serum Uric Acid, Change from Baseline, Mean (SD) (Week 26-Pre-Infusion, n=8): −9.11 (3.293) mg/dL
Serum Uric Acid, Change from Baseline, Median (Week 26-Pre-Infusion, n=8): -8.95 mg/dL
Serum Uric Acid, Observed, Mean (SD) (Week 26-Pre-Infusion, n=8): 0.30 (0.000) mg/dL
Serum Uric Acid, Observed, Median (Week 26-Pre-Infusion, n=8): 0.30 mg/dL
sUA <6 mg/dL, n (%) (Week 26-Pre-Infusion, n=8): 8 (100%)
Serum Uric Acid, Change from Baseline, Mean (SD) (Week 28-Pre-Infusion, n=8): −9.11 (3.293) mg/dL
Serum Uric Acid, Change from Baseline, Median (Week 28-Pre-Infusion, n=8): -8.95 mg/dL

Source: US20220409620A1, “REDUCING IMMUNOGENICITY TO PEGLOTICASE” (Horizon Pharma Rheumatology LLC, priority 2016, published 2022)
